Values of other authors as cited in publication PMC11599114 (Viruses, 2024).

System: influenza A virus(oseltamivir-resistant strain)
Design: method as in ref 30447229
Conditions: MDCK

In the case of KFFRKKSVKK [DRAVPe01822], the EC50 is listed as 18.9 ± 7 µM.
